Experimental data from patent publication US7144893B2, “4-aryl quinols and analogs thereof as therapeutic agents” (Cancer Research Technology Limited, priority 2001, dated 2006).
In brackets after ≈: the same amount, converted by molar mass.

How the values were obtained:
[1] = tested on: A549 lung adenocarcinoma; assay: Growth inhibitory assay (MTT, 72 hr); assay type: cell-based; conditions: Homo sapiens, 72 hr exposure
Procedure: (§1) Compounds were prepared as 10 mM top stocks, dissolved in DMSO, and stored at 4° C., protected from light, for a maximum period of 4 weeks. Human derived cell lines (HCT 116, HT29 colon carcinoma; MCF-7 (ER+), MDA 468 (ER−) breast carcinoma; A549 lung adenocarcinoma) were routinely cultivated at 37° C. in an atmosphere of 5% CO2 in RPMI 1640 medium supplemented with 2 mM L-glutamine and 10% fetal calf serum and subcultured twice weekly to maintain continuous logarithmic growth. Cells were seeded into 96-well microtiter plates at a density of 5×10^3 per well and allowed 24 hr to adhere before drugs were introduced (final concentration 0.1 nM–100 μM, n=8). Serial drug dilutions were prepared in medium immediately prior to each assay. At the time of drug addition and following 72 hr exposure, MTT was added to each well (final concentration 400 µg/mL). Incubation at 37° C. for 4 hr allowed reduction of MTT by mitochondrial dehydrogenase to an insoluble formazan product. Well contents were aspirated and formazan solubilized by addition of DMSO:glycine buffer (pH 10.5) (4:1). Absorbance was measured using an Anthos Labtec systems plate reader at 550 nm, and used as a measure of cell viability; thus cell growth or drug toxicity was determined.

[2] = tested on: HCT 116 colon carcinoma; assay: Growth inhibitory assay (MTT, 72 hr); assay type: cell-based; conditions: Homo sapiens, 72 hr exposure
Procedure: as §1

[3] = tested on: HT29 colon carcinoma; assay: Growth inhibitory assay (MTT, 72 hr); assay type: cell-based; conditions: Homo sapiens, HT-29, 72 hr exposure
Procedure: as §1

[4] = tested on: 60 human cancer cell lines; assay: cells; assay type: cell-based; conditions: Homo sapiens; for CC50: 48 h, read-out: mean LC50
Procedure: (§2) Compounds were tested for in vitro activity (48 h drug exposure) across 60 human cancer cell lines through the National Cancer Institute (NCI) Developmental Therapies Screening Program (Boyd et al., 1995).

[5] = tested on: colon sub-panel; assay: cells; assay type: cell-based; conditions: Homo sapiens, SW-620, read-out: mean LC50 in colon sub-panel
Procedure: as §2

[6] = tested on: renal sub-panel; assay: cells; assay type: cell-based; conditions: Homo sapiens, 60 cell, read-out: mean LC50 in renal sub-panel
Procedure: as §2

[7] = tested on: Mycobacterium tuberculosis H37Rv (ATCC 27294); assay: Microplate Alamar Blue Assay (MABA), TAACF primary screening; assay type: cell-based; conditions: lowest concentration effecting a reduction in fluorescence of 90% relative to controls
Excerpt: Compounds were submitted to the Tuberculosis Antimicrobial Acquisition and Coordinating Facility (TAACF) for testing as antimycobacterial drugs.
Compounds were subjected to in vitro evaluation for antimycobacterial activity.
See, for example, Collins et al., 1997.

[8] = tested on: MDA 468 (ER−) breast carcinoma; assay: Growth inhibitory assay (MTT, 72 hr); assay type: cell-based; conditions: Homo sapiens, 72 hr exposure
Procedure: as §1

[9] = tested on: MCF-7 (ER+) breast carcinoma; assay: Growth inhibitory assay (MTT, 72 hr); assay type: cell-based; conditions: Homo sapiens, MCF7, 72 hr exposure
Procedure: as §1

[10] = mean over NCI 60 cell panel, 48 h drug exposure

melting point [°C] | SMILES | IC50 [1] [µM] | IC50 [2] [µM] | IC50 [3] [µM] | CC50 ([4]; 60 cell) [µM] | GI50 ([4]; 60 cell, Table 5) [µM] | GI50 [4, 10] [µM] | LC50 [5] [µM] | mean LC50 [6] [µM] | MIC [7] [µg/mL] | IC50 [8] [µM] | IC50 [9] [µM]
 | O=C1C=CC(O)(c2cc3ccccc3s2)C=C1 [Q02, 4-(Benzothiophen-2-yl)-4-hydroxy-2,5-cyclohexadien-1-one] | 2.43 | 0.169 | 0.552 | 5.75 | 0.55 | 0.25 | 1.69 | 1.4 |  |  | 
 | O=C1C=CC(O)(c2nc3ccccc3s2)C(Cl)=C1 (centres unmarked) [Q06, 4-(Benzothiazol-2-yl)-3-chloro-4-hydroxy-2,5-cyclohexadien-1-one] |  | 14.9 | 26.3 | 6.31 |  | 0.46 | 2.31 | 1.8 |  |  | 
 | O=C1C=CC(O)(c2ccc3ccccc3c2)C=C1 [Q08, 4-(Naphth-2-yl)-4-hydroxy-2,5-cyclohexadien-1-one] |  | 0.82 | 2.5 | 11.7 |  | 0.81 | 6.58 | 4.68 |  | 1.4 | 1.3
 | O=C1C=CC(O)(c2cccc3ccccc23)C=C1 [Q09, 4-(Naphth-1-yl)-4-hydroxy-2,5-cyclohexadien-1-one] |  | 0.42 | 1.36 | 25.7 |  | 1.82 | 12.2 | 17 |  | 1.77 | 0.78
 | O=C1C=CC(O)(c2cnc3ccccc3c2)C=C1 [Q10, 4-(Quinolin-3-yl)-4-hydroxy-2,5-cyclohexadien-1-one] |  | 0.72 | 0.97 | 15.8 |  | 1.07 | 10.2 | 9.66 | 3.13 (≈ 13.2 µM) | 1.7 | 0.77
 | O=C1C=CC(O)(c2ccccc2)C=C1 [Q11, 4-Phenyl-4-hydroxy-2,5-cyclohexadien-1-one] |  | 2.22 | 3.63 | 21.9 |  | 2.29 | 10.6 | 16.7 |  |  | 
 | O=C1C=CC(O)(c2ccccn2)C=C1 [Q12, 4-(Pyridin-2-yl)-4-hydroxy-2,5-cyclohexadien-1-one] |  | 0.547 | 0.46 | 20.4 |  | 1.91 | 6.9 | 11.3 | 6.25 (≈ 33.4 µM) | 1.5 | 0.72
 | O=C1C=CC(O)(c2cccs2)C=C1 [Q13, 4-(Thiophen-2-yl)-4-hydroxy-2,5-cyclohexadien-1-one] |  | 0.663 | 1.25 | 30.9 |  | 1.78 | 32.5 | 14.4 | 6.25 (≈ 32.5 µM) | 0.719 | 0.569
 | O=C1C=CC(O)(c2nccs2)C=C1 [Q14, 4-(Thiazol-2-yl)-4-hydroxy-2,5-cyclohexadien-1-one] |  | 0.618 | 0.719 | 14.5 |  | 1.35 | 6.19 | 9.17 | 3.13 (≈ 16.2 µM) |  | 
 | COC1(c2ccccc2)C=CC(=O)C=C1 [Q16, 4-Methoxy-4-phenyl-2,5-cyclohexadien-1-one] |  |  |  |  |  | 25.4 |  |  |  |  | 
59 | CCOC1(c2nc3ccccc3s2)C=CC(=O)C=C1 [Q18, 4-(Benzothiazol-2-yl)-4-ethoxy-2,5-cyclohexadien-1-one] |  |  |  |  |  |  |  |  |  |  | 
 | CC(=O)OC1(c2ccccc2)C=CC(=O)C=C1 [Q21, 4-acetoxy-4-phenyl-2,5-cyclohexadien-1-one] |  |  |  |  |  | 4.79 |  |  |  |  | 
 | CCSC1CC(=O)CC(SCC)C1(O)c1ccccc1 (centres unmarked) [Q22, 3,5-Di(ethylthio)-4-hydroxy-4-phenylcyclohexan-1-one] |  |  |  |  |  | 12.6 |  |  |  |  | 
 | O=C1CC(Sc2ccccc2)C(O)(c2ccccc2)C(Sc2ccccc2)C1 (centres unmarked) [Q23, 4-Hydroxy-4-phenyl-3,5-di(phenylthio)-cyclohexan-1-one] |  |  |  |  |  | 1.82 |  |  |  |  | 
 | O=C1CC(SCc2ccccc2)C(O)(c2ccccc2)C(SCc2ccccc2)C1 (centres unmarked) [Q24, 4-Hydroxy-4-phenyl-3,5-di[(phenyl)methylthio]-cyclohexan-1-one] |  |  |  |  |  | 3.98 |  |  |  |  | 
 | O=C1CC(Sc2ccccc2)C(O)(c2nc3ccccc3s2)C(Sc2ccccc2)C1 (centres unmarked) [Q25] |  |  |  |  |  | 0.59 |  |  | 1.56 (≈ 3.36 µM) |  | 
 | NC(CCC(=O)NC(CSC1CC(=O)C=CC1(O)c1nc2ccccc2s1)C(=O)NCC(=O)O)C(=O)O (centres unmarked) [Q28, 4-Benzothiazol-2-yl-5-S-glutathionyl-4-hydroxy-cyclohex-2-enone] |  |  |  |  |  | 2.19 |  |  |  |  | 
 | COC1(c2nc3ccccc3s2)C=CC(=NS(=O)(=O)c2ccc(C)cc2)C=C1 (centres unmarked) [Q29, N-[4-methoxy-4-(benzothiazol-2-yl)cyclohexa-2,5-dienylidene]-4-methylbenzenesulphonamide] |  |  |  | 83.2 |  | 15.5 | > 100 | > 100 |  |  | 
 | COC1(c2nc3ccc(C)cc3s2)C=CC(=NS(=O)(=O)c2ccc(C)cc2)C=C1 (centres unmarked) [Q30, N-[4-methoxy-4-(6-methylbenzothiazol-2-yl)cyclohexa-2,5-dienylidene]4-methylbenzenesulphonamide] |  |  |  | 19.5 |  | 1.2 | 9.92 | 10.6 |  |  | 
 | COc1ccc2nc(C3(OC)C=CC(=NS(=O)(=O)c4ccc(C)cc4)C=C3)sc2c1 (centres unmarked) [Q31, N-[4-methoxy-4-(6-methoxybenzothiazol-2-yl)cyclohexa-2,5-dienylidene]-4-methylbenzenesulphonamide] |  |  |  | 18.6 |  | 1.91 | 13.2 | 11.2 |  |  | 
 | COC1(c2nc3ccc(F)cc3s2)C=CC(=NS(=O)(=O)c2ccc(C)cc2)C=C1 (centres unmarked) [Q32, N-[4-methoxy-4-(6-fluorobenzothiazol-2-yl)cyclohexa-2,5-dienylidene]-4-methylbenzenesulphonamide] |  |  |  | 30.2 |  | 1.74 | 25.6 | 19.1 |  |  | 
 | COC1(c2nc3c(F)cccc3s2)C=CC(=NS(=O)(=O)c2ccc(C)cc2)C=C1 (centres unmarked) [Q33, N-[4-methoxy-4-(4-fluorobenzothiazol-2-yl)cyclohexa-2,5-dienylidene]-4-methylbenzenesulphonamide] |  |  |  | 27.5 |  | 2.57 | 26.9 | 14.4 |  |  | 
138 | O=C1C=CC(OC(=O)c2ccc([N+](=O)[O-])cc2)(c2nc3ccccc3s2)C=C1 [Q34, 4-(para-nitrobenzoyloxy)-4-(benzothiazol-2-yl)-2,5-cyclohexadien-1-one] |  |  |  |  |  |  |  |  |  |  | 
137 | COc1ccc(C(=O)OC2(c3nc4ccccc4s3)C=CC(=O)C=C2)cc1 [Q35, 4-(para-methoxybenzoyloxy)-4-(benzothiazol-2-yl)-2,5-cyclohexadien-1-one] |  |  |  |  |  |  |  |  |  |  | 
 | O=C1CCC(O)(c2nc3ccccc3s2)CC1 [Q43, 4-(Benzothiazol-2-yl)-4-hydroxycyclohexanone] |  |  |  | > 100 |  | > 100 | > 100 | > 100 |  |  | 
 | CC1=CC(O)(c2nc3ccccc3s2)C=C(C)C1=O [Q44, 4-(benzothiazol-2-yl)-4-hydroxy-2,6-dimethylcyclohexa-2,5-dien-1-one] |  |  |  | > 100 |  | 38.2 | > 100 | > 100 |  |  | 
 | O=C1/C(=C\c2ccccc2)CC(O)(c2nc3ccccc3s2)C/C1=C/c1ccccc1 (centres unmarked) [Q45, 4-(benzothiazol-2-yl)-2,6-bis(phenylmethinyl)-4-hydroxycyclohexanone] |  |  |  | 47.9 |  | 2.69 | 17.4 | 37.2 |  |  | 
 | O=C1C=CC(O)(c2cc3ccccc3s2)c2ccccc21 (centres unmarked) [Q46, 4-Benzothiophen-2-yl-4-hydroxy-4H-naphth-1-one] |  |  |  | 70.8 |  | 2.29 | > 100 | > 100 |  |  | 
 | O=C1C=CC(O)(c2cc3ccccc3o2)c2ccccc21 (centres unmarked) [Q47, 4-(Benzofuran-2-yl)-4-hydroxy-4H-naphth-1-one] |  |  |  | 7.76 |  | 0.74 | 7.76 | 6.48 |  |  | 

SMILES | melting point [°C] | IC50 [1] [µM] | IC50 [2] [µM] | IC50 [3] [µM] | CC50 ([4]; 60 cell) [µM] | GI50 ([4]; 60 cell, Table 5) [µM] | GI50 [4, 10] [µM] | LC50 [5] [µM] | mean LC50 [6] [µM] | MIC [7] [µg/mL] | IC50 [8] [µM] | IC50 [9] [µM]
O=C1C=CC(O)(c2nc3ccccc3[nH]2)C=C1 [Q07, 4-(Benzimidazol-2-yl)-4-hydroxy-2,5-cyclohexadien-1-one] | 234 |  | 0.21 | 0.504 |  |  | 1.1 |  |  | 3.13 (≈ 13.8 µM) | 0.353 | 0.509
